Data: EPA's CvTdb concentration-time database

Experiments:
Rat [1] = experiment: concentration in plasma after dosing; conditions: dosed: Potassium Perfluorobutane Sulfonate, 4 mg/kg, oral, Male, Harlan Sprague Dawley
Rat [2] = experiment: concentration in plasma after dosing; conditions: dosed: Potassium Perfluorobutane Sulfonate, 4 mg/kg, iv, Male, F344
Rat [3] = experiment: concentration in plasma after dosing; conditions: 1.5 h; dosed: Potassium Perfluorobutane Sulfonate; 4 mg/kg; iv; Male; F344
Rat [4] = experiment: concentration in liver after dosing; conditions: 1200 h; dosed: Perfluorooctanoic acid; 12 mg/kg; oral; Male; Harlan Sprague Dawley
Rat [5] = experiment: concentration in liver after dosing; conditions: 0.5 h; dosed: Fluorotelomer alcohol 8+2; 80 mg/kg; oral; Female; Harlan Sprague Dawley
Rat [6] = experiment: concentration in kidney after dosing; conditions: 3 h; dosed: Fluorotelomer alcohol 8+2; 24 mg/kg; oral; Male; Harlan Sprague Dawley
Rat [7] = experiment: concentration in kidney after dosing; conditions: 12 h; dosed: Fluorotelomer alcohol 8+2; 24 mg/kg; oral; Male; Harlan Sprague Dawley
Rat [8] = experiment: concentration in kidney after dosing; conditions: 3 h; dosed: Perfluorooctanoic acid; 80 mg/kg; oral; Female; Harlan Sprague Dawley
Rat [9] = experiment: concentration in kidney after dosing; conditions: 1200 h; dosed: Perfluorooctanoic acid; 12 mg/kg; oral; Male; Harlan Sprague Dawley
Rat [10] = experiment: concentration in kidney after dosing; conditions: 3 h; dosed: Perfluorooctanoic acid; 12 mg/kg; oral; Male; Harlan Sprague Dawley
Rat [11] = experiment: concentration in plasma after dosing; conditions: dosed: 678-39-7, 12 mg/kg, iv, Male, F344
Rat [12] = experiment: concentration in kidney after dosing; conditions: 192 h; dosed: Perfluorooctanoic acid; 12 mg/kg; oral; Male; Harlan Sprague Dawley
Rat [13] = experiment: concentration in plasma after dosing; conditions: dosed: 678-39-7, 40 mg/kg, iv, Female, Harlan Sprague-Dawley
Rat [14] = experiment: concentration in kidney after dosing; conditions: 1200 h; dosed: Perfluorooctanoic acid; 12 mg/kg; oral; Male; Harlan Sprague Dawley; remark: listed apart in the source
Rat [15] = experiment: concentration in plasma after dosing; conditions: 3 h; dosed: 678-39-7; 12 mg/kg; iv; Male; F344
Rat [16] = experiment: concentration in plasma after dosing; conditions: 4 h; dosed: 2-Hydroxy-4-methoxybenzophenone; 500 mg/kg; oral; Male; F344
Mouse [17] = experiment: concentration in plasma after dosing; conditions: 10 min; dosed: 2-Hydroxy-4-methoxybenzophenone; 50 mg/kg; iv; Male; B6C3F1
Mouse [18] = experiment: concentration in plasma after dosing; conditions: 10 min; dosed: 2-Hydroxy-4-methoxybenzophenone; 500 mg/kg; oral; Female; B6C3F1
Rat [19] = experiment: concentration in plasma after dosing; conditions: 2 min; dosed: Nitrite; 20 mg/kg; iv; Male; F344
Rat [20] = experiment: concentration in plasma after dosing; conditions: dosed: Nitrite, 80 mg/kg, oral, Female, F344
rat [21] = experiment: concentration in lung after dosing (ugEq/g tissue); conditions: dosed: benzo[a]pyrene, iv, male, Wistar
rat [22] = experiment: concentration in adipose after dosing (ugEq/g tissue); conditions: dosed: benzo[a]pyrene, iv, male, Wistar

O=S(=O)([O-])C(F)(F)C(F)(F)C(F)(F)C(F)(F)F.[K+] [Potassium Perfluorobutane Sulfonate]
concentration in plasma [ng/mL]
Conditions	0.25 h	3 h	5 min	6 h
Rat [1]	–	15100	320	–
Rat [2]	15900	–	–	47.5

Conditions	concentration in plasma [ng/mL]
Rat [3]	1740

O=C(O)C(F)(F)C(F)(F)C(F)(F)C(F)(F)C(F)(F)C(F)(F)C(F)(F)F [Perfluorooctanoic acid]
Conditions	concentration in kidney [ng/g]	concentration in liver [ng/g]	concentration in plasma [ng/mL]
Rat [4]	–	4980	–
Rat [5]	–	470	–
Rat [6]	317	–	–
Rat [7]	365	–	–
Rat [8]	49700	–	–
Rat [9]	1110	–	–
Rat [10]	36800	–	–
Rat [12]	14100	–	–
Rat [14]	695	–	–
Rat [15]	–	–	497

concentration in plasma [ng/mL]
Conditions	0.5 h	1 h	9 h	24 h
Rat [11]	235	–	438	–
Rat [13]	–	2620	–	86.7

COc1ccc(C(=O)c2ccccc2)c(O)c1 [2-Hydroxy-4-methoxybenzophenone]
Conditions	concentration in plasma [ng/mL]
Mouse [17]	14000
Mouse [18]	535
Rat [16]	345

O=N[O-] [Nitrite]
Conditions	concentration in plasma [ng/mL]
Rat [19]	15100

Rat [20]
Conditions	concentration in plasma [ng/mL]
1 h	32700
2 h	20600

c1ccc2c(c1)cc1ccc3cccc4ccc2c1c34 [benzo[a]pyrene]
Conditions	concentration in adipose, rat [22]	concentration in lung, rat [21]
0.5 h, 2 mg/kg	2.77	1.06
0.5 h, 6 mg/kg	2.29	16
0.5 h, 15 mg/kg	8.6	25.8
0.75 h, 2 mg/kg	2.4	2.68
0.75 h, 6 mg/kg	4.54	5.85
0.75 h, 15 mg/kg	13.4	13.7
1 h, 2 mg/kg	3.86	2.4
1 h, 6 mg/kg	3.99	2.76
1 h, 15 mg/kg	9.76	17
1.5 h, 2 mg/kg	2.58	1.07
1.5 h, 6 mg/kg	5.25	5.3
1.5 h, 15 mg/kg	14.8	38.5
2 h, 2 mg/kg	3.96	14.7
2 h, 6 mg/kg	3.37	5.84
2 h, 15 mg/kg	17.1	37
3 h, 2 mg/kg	3.29	0.34
3 h, 6 mg/kg	2.88	0.4
3 h, 15 mg/kg	19.8	7.07
4 h, 2 mg/kg	2.96	0.04
4 h, 6 mg/kg	2.38	2.64
4 h, 15 mg/kg	15.4	22.4
5 h, 2 mg/kg	3.03	0.68
5 h, 6 mg/kg	3.88	12.4
5 h, 15 mg/kg	27.8	33.2
5 min, 2 mg/kg	1.06	5.17
5 min, 6 mg/kg	0.37	33.9
5 min, 15 mg/kg	1.47	46
6 h, 2 mg/kg	2.28	0.06
6 h, 6 mg/kg	4.26	6.27
6 h, 15 mg/kg	15.1	22.6
8 h, 2 mg/kg	3.13	9.32
8 h, 6 mg/kg	4.09	5.09
8 h, 15 mg/kg	17.4	18.4
10 min, 2 mg/kg	1.22	1.31
10 min, 6 mg/kg	0.81	13.6
10 min, 15 mg/kg	2.73	26.1
20 min, 2 mg/kg	1.82	2.8
20 min, 6 mg/kg	2.04	17.3
20 min, 15 mg/kg	5.65	23.4
24 h, 2 mg/kg	1.38	–
24 h, 15 mg/kg	11.1	10.2
32 h, 2 mg/kg	1.46	–
32 h, 6 mg/kg	1.02	3.9
32 h, 15 mg/kg	5.85	15.7
